Test system: patients suffering hair loss and numbness due to diabetic neuropathy
Assay: Repetitive topical application of minoxidil in patients suffering hair loss and numbness due to diabetic neuropathy
Assay type: in vivo
Conditions: twice a day, approximately 1 mL per day, 2-5% minoxidil
Experimental: In an illustrative test with repetitive topical application of minoxidil as a VGIA 120a in patients suffering hair loss and numbness due to diabetic neuropathy, hair growth, nail growth, and temperature perception (restoration of innervation) was achieved on the leg within 2-3 weeks. The minoxidil was applied twice a day in a quantity of approximately 1 mL per day in a concentration of 2-5% minoxidil.

Nc1cc(N2CCCCC2)nc(N)[n+]1[O-] [minoxidil]
2-3 weeks: hair growth achieved on the leg (time) | temperature perception (restoration of innervation) achieved on the leg (time) | nail growth achieved (time) (leg)

From US20260007667A1, “TOPICAL ECTODERMAL STIMULATION” (SOLIFON PHARMACEUTICALS, INC., priority 2022, published 2026)
